Results as given in the NIST ThermoML archive (doi:10.1016/j.jct.2010.02.009).
Values joined by “and” are separate entries in the source; they are usually repeats but may differ in a detail not shown here. Equal values may be shown once. ± gives the expanded uncertainty stated by the source.

What was measured:
[1] = refractive index (other wavelength) (dimensionless); xn = mol fraction of the nth substance listed; settings: 101 kPa, Liquid, Wavelength=632.8 nm, Standard Abbe refractometry
[2] = heat capacity at constant pressure per volume; xn = mol fraction of the nth substance listed; settings: 101 kPa, Liquid, Large sample (1 g) DSC, x1 = 0.497

N#Cc1ccccc1 [benzonitrile] + CCCCCCCCC
[1]
Settings | refractive index
278.24 K, x1 = 1 | 1.5324 ± 0.0008
279.25 K, x1 = 1 | 1.5319 ± 0.0008
281.33 K, x1 = 1 | 1.5308 ± 0.0008
282.96 K, x1 = 1 | 1.5301 ± 0.0008
284.3 K, x1 = 1 | 1.5294 ± 0.0008
285.4 K, x1 = 0.0945 | 1.4145 ± 0.0008
285.4 K, x1 = 0.2042 | 1.4234 ± 0.0008
285.4 K, x1 = 0.2947 | 1.4313 ± 0.0008
285.4 K, x1 = 0.3866 | 1.4402 ± 0.0008
285.4 K, x1 = 0.4969 | 1.452 ± 0.0008
285.4 K, x1 = 0.5967 | 1.4642 ± 0.0008
285.4 K, x1 = 0.6844 | 1.4759 ± 0.0008
285.4 K, x1 = 0.7992 | 1.4932 ± 0.0008
285.4 K, x1 = 0.865 | 1.504 ± 0.0008
285.43 K, x1 = 1 | 1.5288 ± 0.0008

[2]
Settings | heat capacity
278.51 K | 1795700 ± 36000 J/K/m3
279.06 K | 1803600 ± 36000 J/K/m3
279.55 K | 1808700 ± 36000 J/K/m3
280 K | 1811600 ± 36000 J/K/m3
280.41 K | 1816400 ± 36000 J/K/m3
280.77 K | 1824500 ± 36000 J/K/m3
281.11 K | 1829200 ± 37000 J/K/m3
281.41 K | 1830500 ± 37000 J/K/m3
281.68 K | 1829700 ± 37000 J/K/m3
281.93 K | 1835700 ± 37000 J/K/m3
282.15 K | 1841800 ± 37000 J/K/m3
282.35 K | 1845300 ± 37000 J/K/m3
282.53 K | 1847600 ± 37000 J/K/m3
282.7 K | 1849700 ± 37000 J/K/m3
282.85 K | 1856600 ± 37000 J/K/m3
282.98 K | 1859600 ± 37000 J/K/m3
283.1 K | 1862200 ± 37000 J/K/m3
283.21 K | 1866700 ± 37000 J/K/m3
283.31 K | 1869700 ± 37000 J/K/m3
283.4 K | 1868700 ± 37000 J/K/m3
283.49 K | 1873100 ± 38000 J/K/m3
283.56 K | 1868300 ± 37000 J/K/m3
283.69 K | 1880300 ± 38000 J/K/m3
283.88 K | 1913600 ± 38000 J/K/m3
283.95 K | 1908800 ± 38000 J/K/m3
284.03 K | 1934300 ± 40000 J/K/m3
284.09 K | 1950500 ± 40000 J/K/m3
284.11 K | 1960300 ± 40000 J/K/m3
284.12 K | 1970200 ± 41000 J/K/m3
284.13 K | 1977600 ± 41000 J/K/m3
284.15 K | 1985800 ± 42000 J/K/m3
284.16 K | 1998500 ± 40000 J/K/m3
284.18 K | 2005300 ± 43000 J/K/m3
284.19 K | 2006000 ± 43000 J/K/m3
284.2 K | 2015800 ± 43000 J/K/m3
284.21 K | 2022500 ± 43000 J/K/m3
284.22 K | 2037100 ± 44000 J/K/m3
284.23 K | 2046300 ± 45000 J/K/m3
284.24 K | 2060600 ± 46000 J/K/m3
284.25 K | 2071500 ± 46000 J/K/m3
284.26 K | 2047100 ± 46000 J/K/m3 [middle of 6 runs]
284.27 K | 1937800 ± 46000 J/K/m3 [middle of 5 runs]
284.28 K | 1815400 ± 42000 J/K/m3 and 1840700 ± 42000 J/K/m3
284.29 K | 1794400 ± 42000 J/K/m3
284.31 K | 1776700 ± 44000 J/K/m3
284.33 K | 1765400 ± 47000 J/K/m3
284.36 K | 1750800 ± 44000 J/K/m3
284.42 K | 1731200 ± 35000 J/K/m3
284.5 K | 1715800 ± 34000 J/K/m3
284.61 K | 1703600 ± 34000 J/K/m3
284.69 K | 1698600 ± 34000 J/K/m3
284.79 K | 1693000 ± 34000 J/K/m3
284.9 K | 1688700 ± 34000 J/K/m3
284.97 K | 1686600 ± 34000 J/K/m3
285.12 K | 1680400 ± 34000 J/K/m3
285.21 K | 1677900 ± 34000 J/K/m3
285.31 K | 1676100 ± 34000 J/K/m3
285.43 K | 1674300 ± 34000 J/K/m3
285.55 K | 1671100 ± 33000 J/K/m3
285.68 K | 1668100 ± 33000 J/K/m3
285.83 K | 1666100 ± 33000 J/K/m3
286 K | 1665000 ± 33000 J/K/m3
286.18 K | 1662900 ± 33000 J/K/m3
286.38 K | 1659800 ± 33000 J/K/m3
286.6 K | 1659100 ± 33000 J/K/m3
286.85 K | 1655600 ± 33000 J/K/m3
287.12 K | 1655500 ± 33000 J/K/m3
287.42 K | 1652700 ± 33000 J/K/m3
287.75 K | 1650500 ± 33000 J/K/m3
288.12 K | 1649500 ± 33000 J/K/m3
288.53 K | 1647700 ± 33000 J/K/m3
288.97 K | 1645800 ± 33000 J/K/m3
289.51 K | 1644500 ± 33000 J/K/m3
290.01 K | 1643400 ± 33000 J/K/m3
290.61 K | 1641800 ± 33000 J/K/m3
291.29 K | 1641000 ± 33000 J/K/m3
292.03 K | 1639400 ± 33000 J/K/m3
292.42 K | 1639400 ± 33000 J/K/m3
292.84 K | 1638700 ± 33000 J/K/m3
293.28 K | 1638100 ± 33000 J/K/m3
293.74 K | 1637800 ± 33000 J/K/m3
294.24 K | 1637400 ± 33000 J/K/m3
294.74 K | 1636900 ± 33000 J/K/m3
295.28 K | 1636500 ± 33000 J/K/m3
295.85 K | 1636400 ± 33000 J/K/m3
296.45 K | 1635800 ± 33000 J/K/m3
297.07 K | 1635800 ± 33000 J/K/m3
297.73 K | 1635500 ± 33000 J/K/m3
298.41 K | 1635100 ± 33000 J/K/m3
299.14 K | 1635100 ± 33000 J/K/m3
299.89 K | 1634900 ± 33000 J/K/m3
300.7 K | 1634900 ± 33000 J/K/m3
301.55 K | 1634800 ± 33000 J/K/m3
302.43 K | 1635000 ± 33000 J/K/m3
303.36 K | 1635100 ± 33000 J/K/m3
304.34 K | 1635200 ± 33000 J/K/m3
305.38 K | 1635400 ± 33000 J/K/m3
306.45 K | 1635600 ± 33000 J/K/m3
307.59 K | 1635800 ± 33000 J/K/m3
308.79 K | 1636100 ± 33000 J/K/m3
310.05 K | 1636600 ± 33000 J/K/m3
311.36 K | 1637200 ± 33000 J/K/m3
312.75 K | 1637800 ± 33000 J/K/m3
314.12 K | 1638500 ± 33000 J/K/m3
